Here are results for 25 compounds from publication PMC6864627, “Synthesis of Novel Triazinoindole-Based Thiourea Hybrid: A Study on α-Glucosidase Inhibitors and Their Molecular Docking” (Molecules, 2019).

This assay deals with T1, α-glucosidase (Saccharomyces cerevisiae, UniProt P53341).
T1 construct: purchased Sigma Inc
T1 sequence (P53341 whole entry): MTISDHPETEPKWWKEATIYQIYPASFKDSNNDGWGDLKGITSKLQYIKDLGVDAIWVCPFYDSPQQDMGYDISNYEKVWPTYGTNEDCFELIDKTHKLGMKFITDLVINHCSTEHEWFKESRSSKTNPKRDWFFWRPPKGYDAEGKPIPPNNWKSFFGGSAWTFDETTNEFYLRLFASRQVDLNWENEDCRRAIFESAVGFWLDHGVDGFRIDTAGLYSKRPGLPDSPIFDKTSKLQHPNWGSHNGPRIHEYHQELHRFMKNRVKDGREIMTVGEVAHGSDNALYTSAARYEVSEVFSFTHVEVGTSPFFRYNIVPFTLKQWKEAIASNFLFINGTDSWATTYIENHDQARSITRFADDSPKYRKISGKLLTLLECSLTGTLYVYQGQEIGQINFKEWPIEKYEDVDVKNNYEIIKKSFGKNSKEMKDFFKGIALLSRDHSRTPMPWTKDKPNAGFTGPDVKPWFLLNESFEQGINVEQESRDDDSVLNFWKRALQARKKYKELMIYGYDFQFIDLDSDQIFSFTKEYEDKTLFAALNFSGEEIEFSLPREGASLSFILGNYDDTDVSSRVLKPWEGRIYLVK
Nature of the assay: α-glucosidase inhibition assay. The class given is biochemical. The note with it: 50 mM phosphate buffer pH 6.8; 0.057 units enzyme; standard acarbose. As to the method: The α-glucosidase activity was executed according to Fazal et al.. The following chemicals were used (concentrations): • 70 μL of 50 mM phosphate buffer (pH 6.8); • 10 μL (0.5 mM in methanol) test compounds; and • 10 μL (0.057 units, Sigma Inc.) of enzyme solution in buffer. For details on the experiment, kindly see Reference.
For orientation: IC50 means the concentration that inhibits the measured activity by half. `COc1ccc(C(CSc2nnc3c(n2)[nH]c2ccccc23)=NNC(=S)Nc2ccc([N+](=O)[O-])cc2)cc1` [Compound 2, 2-(2-((5H-[1,2,4]triazino [5,6-b]indol-3-yl)thio)-1-(4-methoxyphenyl)ethylidene)-N-(4-nitrophenyl)hydrazine-1-carbothioamide]: 2.6 ± 0.05 µM corresponded to half-maximal inhibition (IC50). For `Cc1ccc(C(CSc2nnc3c(n2)[nH]c2ccccc23)=NNC(=S)Nc2c(C)cccc2C)cc1` [Compound 20, 2-(2-((5H-[1,2,4]triazino[5,6-b]indol-3-yl)thio)-1-(p-tolyl)ethylidene)-N-(2,6-dimethylphenyl)hydrazine-1-carbothioamide] the value was 7.5 ± 0.2 µM. In turn, `Cc1ccc(NC(=S)NN=C(CSc2nnc3c(n2)[nH]c2ccccc23)c2cccc([N+](=O)[O-])c2)cc1` [Compound 12, 2-(2-((5H-[1,2,4]triazino[5,6-b]indol-3-yl)thio)-1-(3-nitrophenyl)ethylidene)-N-(p-tolyl)hydrazine-1-carbothioamide] yielded an IC50 of 8.3 ± 0.2 µM.

As to `S=C(NN=C(CSc1nnc2c(n1)[nH]c1ccccc12)c1ccc(-c2ccccc2)cc1)Nc1cccc(Cl)c1Cl` [Compound 3, 2-(2-((5H-[1,2,4]triazino [5,6-b]indol-3-yl)thio)-1-([1,1′-biphenyl]-4-yl)ethylidene)-N-(2,3-dichlorophenyl)hydrazine-1-carbothioamide], it took 7.5 ± 0.2 µM to reach half-maximal inhibition (IC50). For `S=C(NN=C(CSc1nnc2c(n1)[nH]c1ccccc12)c1ccc(-c2ccccc2)cc1)Nc1ccc(Cl)c(Cl)c1` [Compound 19, 2-(2-((5H-[1,2,4]triazino[5,6-b]indol-3-yl)thio)-1-([1,1′-biphenyl]-4-yl)ethylidene)-N-(3,4-dichlorophenyl)hydrazine-1-carbothioamide] the value was 2.3 ± 0.05 µM; for `COc1ccc(C(CSc2nnc3c(n2)[nH]c2ccccc23)=NNC(=S)Nc2ccc(Cl)c(Cl)c2)cc1` [Compound 18, 2-(2-((5H-[1,2,4]triazino[5,6-b]indol-3-yl)thio)-1-(4-methoxyphenyl)ethylidene)-N-(3,4-dichlorophenyl)hydrazine-1-carbothioamide], 2.3 ± 0.05 µM; for `Cc1cccc(C)c1NC(=S)NN=C(CSc1nnc2c(n1)[nH]c1ccccc12)c1ccc(-c2ccccc2)cc1` [Compound 13, 2-(2-((5H-[1,2,4]triazino[5,6-b]indol-3-yl)thio)-1-([1,1′-biphenyl]-4-yl)ethylidene)-N-(2,6-dimethylphenyl)hydrazine-1-carbothioamide], 23.3 ± 0.5 µM.

In turn, `S=C(NN=C(CSc1nnc2c(n1)[nH]c1ccccc12)c1ccc(-c2ccccc2)cc1)Nc1ccccc1` [Compound 24, 2-(2-((5H-[1,2,4]triazino[5,6-b]indol-3-yl)thio)-1-([1,1′-biphenyl]-4-yl)ethylidene)-N-phenylhydrazine-1-carbothioamide] returned an IC50 of 15.3 ± 0.3 µM. For the compound `COc1ccc(C(CSc2nnc3c(n2)[nH]c2ccccc23)=NNC(=S)Nc2cccc(C)c2C)cc1` [Compound 22, 2-(2-((5H-[1,2,4]triazino[5,6-b]indol-3-yl)thio)-1-(4-methoxyphenyl)ethylidene)-N-(2,3-dimethylphenyl)hydrazine-1-carbothioamide], the IC50 came out at 5.9 ± 0.1 µM. For the compound `COc1ccc(C(CSc2nnc3c(n2)[nH]c2ccccc23)=NNC(=S)Nc2ccc(C)cc2)cc1` [Compound 5, 2-(2-((5H-[1,2,4]triazino[5,6-b]indol-3-yl)thio)-1-(4-methoxyphenyl)ethylidene)-N-(p-tolyl)hydrazine-1-carbothioamide], the half-maximal inhibitory concentration (IC50) was 5.2 ± 0.3 µM. In turn, `O=[N+]([O-])c1ccc(C(CSc2nnc3c(n2)[nH]c2ccccc23)=NNC(=S)Nc2ccccc2)cc1` [Compound 9, 2-(2-((5H-[1,2,4]triazino[5,6-b]indol-3-yl)thio)-1-(4-nitrophenyl)ethylidene)-N-phenylhydrazine-1-carbothioamide] yielded an IC50 of 6.8 ± 0.1 µM. In turn, `Cc1ccc(NC(=S)NN=C(CSc2nnc3c(n2)[nH]c2ccccc23)c2ccc(-c3ccccc3)cc2)cc1` [Compound 4, 2-(2-((5H-[1,2,4]triazino[5,6-b]indol-3-yl)thio)-1-([1,1′-biphenyl]-4-yl)ethylidene)-N-(p-tolyl)hydrazine-1-carbothioamide] registered an IC50 of 12.8 ± 0.3 µM. Compared with the last compound, the IC50 is about 1.9-fold higher.

`Cc1ccc(C(CSc2nnc3c(n2)[nH]c2ccccc23)=NNC(=S)Nc2ccccc2Br)cc1` [Compound 7, 2-(2-((5H-[1,2,4]triazino[5,6-b]indol-3-yl)thio)-1-(p-tolyl)ethylidene)-N-(2-bromophenyl)hydrazine-1-carbothioamide] showed a half-maximal inhibitory concentration (IC50) of 33.3 ± 0.6 µM. As to `COc1ccc(C(CSc2nnc3c(n2)[nH]c2ccccc23)=NNC(=S)Nc2cccc(Cl)c2Cl)cc1` [Compound 1, 2-(2-((5H-[1,2,4]triazino [5,6-b]indol-3-yl)thio)-1-(4-methoxyphenyl)ethylidene)-N-(2,3-dichlorophenyl)hydrazine-1-carbothioamide], inhibition was half-maximal at 1.3 ± 0.05 µM (IC50). Compared with the last compound, the IC50 is about 26-fold lower. For `Cc1ccc(NC(=S)NN=C(CSc2nnc3c(n2)[nH]c2ccccc23)c2ccc(C)cc2)cc1` [Compound 8, 2-(2-((5H-[1,2,4]triazino[5,6-b]indol-3-yl)thio)-1-(p-tolyl)ethylidene)-N-(p-tolyl)hydrazine-1-carbothioamide] the value was 17.5 ± 0.3 µM. For `COc1ccc(C(CSc2nnc3c(n2)[nH]c2ccccc23)=NNC(=S)Nc2ccccc2Br)cc1` [Compound 10, 2-(2-((5H-[1,2,4]triazino[5,6-b]indol-3-yl)thio)-1-(4-methoxyphenyl)ethylidene)-N-(2-bromophenyl)hydrazine-1-carbothioamide] the value was 35.8 ± 0.8 µM; for `COc1ccc(C(CSc2nnc3c(n2)[nH]c2ccccc23)=NNC(=S)Nc2c(C)cccc2C)cc1` [Compound 15, 2-(2-((5H-[1,2,4]triazino[5,6-b]indol-3-yl)thio)-1-(4-methoxyphenyl)ethylidene)-N-(2,6-dimethylphenyl)hydrazine-1-carbothioamide], 5.8 ± 0.2 µM; for `COc1ccc(C(CSc2nnc3c(n2)[nH]c2ccccc23)=NNC(=S)Nc2ccc(F)cc2)cc1` [Compound 16, 2-(2-((5H-[1,2,4]triazino[5,6-b]indol-3-yl)thio)-1-(4-methoxyphenyl)ethylidene)-N-(4-fluorophenyl)hydrazine-1-carbothioamide], 1.8 ± 0.2 µM.

`Cc1ccc(C(CSc2nnc3c(n2)[nH]c2ccccc23)=NNC(=S)Nc2ccc(Cl)c(Cl)c2)cc1` [Compound 21, 2-(2-((5H-[1,2,4]triazino[5,6-b]indol-3-yl)thio)-1-(p-tolyl)ethylidene)-N-(3,4-dichlorophenyl)hydrazine-1-carbothioamide]: the IC50 was 4.8 ± 0.2 µM. As for `COc1ccc(C(CSc2nnc3c(n2)[nH]c2ccccc23)=NNC(=S)Nc2ccccc2)cc1` [Compound 25, 2-(2-((5H-[1,2,4]triazino[5,6-b]indol-3-yl)thio)-1-(4-methoxyphenyl)ethylidene)-N-phenylhydrazine-1-carbothioamide], the IC50 turned out to be 9.3 ± 0.3 µM.

In the case of `O=[N+]([O-])c1cccc(C(CSc2nnc3c(n2)[nH]c2ccccc23)=NNC(=S)Nc2ccccc2)c1` [Compound 17, 2-(2-((5H-[1,2,4]triazino[5,6-b]indol-3-yl)thio)-1-(3-nitrophenyl)ethylidene)-N-phenylhydrazine-1-carbothioamide], half-maximal inhibition (IC50) required 8.8 ± 0.2 µM.

Turning to `S=C(NN=C(CSc1nnc2c(n1)[nH]c1ccccc12)c1ccc(-c2ccccc2)cc1)Nc1ccccc1Br` [Compound 6, 2-(2-((5H-[1,2,4]triazino[5,6-b]indol-3-yl)thio)-1-([1,1′-biphenyl]-4-yl)ethylidene)-N-(2-bromophenyl)hydrazine-1-carbothioamide], the IC50 worked out at 25.3 ± 0.5 µM. For `O=[N+]([O-])c1cccc(C(CSc2nnc3c(n2)[nH]c2ccccc23)=NNC(=S)Nc2ccccc2Br)c1` [Compound 11, 2-(2-((5H-[1,2,4]triazino[5,6-b]indol-3-yl)thio)-1-(3-nitrophenyl)ethylidene)-N-(2-bromophenyl)hydrazine-1-carbothioamide] the value was 26.8 ± 0.7 µM; for `O=[N+]([O-])c1cccc(C(CSc2nnc3c(n2)[nH]c2ccccc23)=NNC(=S)Nc2cccc(Cl)c2Cl)c1` [Compound 23, 2-(2-((5H-[1,2,4]triazino[5,6-b]indol-3-yl)thio)-1-(3-nitrophenyl)ethylidene)-N-(2,3-dichlorophenyl)hydrazine-1-carbothioamide], 1.3 ± 0.01 µM; for `Cc1cccc(C)c1NC(=S)NN=C(CSc1nnc2c(n1)[nH]c1ccccc12)c1cccc([N+](=O)[O-])c1` [Compound 14, 2-(2-((5H-[1,2,4]triazino[5,6-b]indol-3-yl)thio)-1-(3-nitrophenyl)ethylidene)-N-(2,6-dimethylphenyl)hydrazine-1-carbothioamide], 7.5 ± 0.2 µM.
